Series [1] relates to Dog NPRA. As to the kind of experiment: cGMP assay, canine NPRA expressing 293 cells. The format is cell-based. Here is the method: (§1) Natriuretic peptides of >95% HPLC purity were obtained from Sigma. HEK293 NPRA cells grown to 90% confluence were harvested using HANKS based Cell Dissociation Medium (GIBCO). Cells were washed and resuspended at 3.3×10^5 cells per mL in pre warmed Dulbecco's PBS, pH 7.4, 25 mM HEPES, 0.1% BSA, 500 μM 3-Isobutyl-1-methylxanthine (IBMX) [Assay Buffer]. Assays were performed in Optiplate-96 White Opaque 96-well Microplates (Perkin Elmer). 15 μL of cell suspension is added to 15 μL of 2× fusion protein in Assay Buffer in triplicate and incubated for 20 minutes at 37° C. The cGMP concentration was measured using the HitHunter™ cGMP Assay Kit (DiscoveRx Corporation). cGMP production dose response curves were generated with a four parameter logistic equation fitted using the Levenburg Marquardt algorithm in XLfit4.2 data analysis software (ID Business Solutions, Ltd.).
Human ANP28 peptide was assayed for cGMP production in species specific NPRA transfected 293 or 293T cells. Dose response curves for cGMP production stimulated by human ANP28 peptide in rat NPRA (rNPRA) expressing 293T cells and human NPRA (hNPRA) and canine NPRA (caNPRA) expressing 293 cells are shown in FIG. 2.
The selectivity of the recombinant ANP-Fc fusion proteins was assessed by analyzing their efficacy in NPRB expressing cell lines. […]

Series [2] concerns Monkey NPRA. As to the kind of experiment: cGMP assay, monkey NPRA expressing HEK293 cells. The series is classed as cell-based. The settings on record: Table 4. As to the method:
as §1
The selectivity of the recombinant ANP-Fc fusion proteins was assessed by analyzing their efficacy in NPRB expressing cell lines. The species cross-reactivity of the ANP-Fc fusion proteins was tested in rat, canine, and monkey NPRA expressing HEK293 cell lines. The ANP-Fc fusions tested have good cross-reactivity in the rat, canine, and monkey NPRA mediated cGMP assays (Table 4). The ANP-Fc fusion proteins have nearly equivalent dose response values when tested in human, dog and monkey expressing NPRA cells. […]

For series [3], the target named is T1, human NPRA (Homo sapiens, UniProt P16066).
T1 sequence (P16066 33-1061): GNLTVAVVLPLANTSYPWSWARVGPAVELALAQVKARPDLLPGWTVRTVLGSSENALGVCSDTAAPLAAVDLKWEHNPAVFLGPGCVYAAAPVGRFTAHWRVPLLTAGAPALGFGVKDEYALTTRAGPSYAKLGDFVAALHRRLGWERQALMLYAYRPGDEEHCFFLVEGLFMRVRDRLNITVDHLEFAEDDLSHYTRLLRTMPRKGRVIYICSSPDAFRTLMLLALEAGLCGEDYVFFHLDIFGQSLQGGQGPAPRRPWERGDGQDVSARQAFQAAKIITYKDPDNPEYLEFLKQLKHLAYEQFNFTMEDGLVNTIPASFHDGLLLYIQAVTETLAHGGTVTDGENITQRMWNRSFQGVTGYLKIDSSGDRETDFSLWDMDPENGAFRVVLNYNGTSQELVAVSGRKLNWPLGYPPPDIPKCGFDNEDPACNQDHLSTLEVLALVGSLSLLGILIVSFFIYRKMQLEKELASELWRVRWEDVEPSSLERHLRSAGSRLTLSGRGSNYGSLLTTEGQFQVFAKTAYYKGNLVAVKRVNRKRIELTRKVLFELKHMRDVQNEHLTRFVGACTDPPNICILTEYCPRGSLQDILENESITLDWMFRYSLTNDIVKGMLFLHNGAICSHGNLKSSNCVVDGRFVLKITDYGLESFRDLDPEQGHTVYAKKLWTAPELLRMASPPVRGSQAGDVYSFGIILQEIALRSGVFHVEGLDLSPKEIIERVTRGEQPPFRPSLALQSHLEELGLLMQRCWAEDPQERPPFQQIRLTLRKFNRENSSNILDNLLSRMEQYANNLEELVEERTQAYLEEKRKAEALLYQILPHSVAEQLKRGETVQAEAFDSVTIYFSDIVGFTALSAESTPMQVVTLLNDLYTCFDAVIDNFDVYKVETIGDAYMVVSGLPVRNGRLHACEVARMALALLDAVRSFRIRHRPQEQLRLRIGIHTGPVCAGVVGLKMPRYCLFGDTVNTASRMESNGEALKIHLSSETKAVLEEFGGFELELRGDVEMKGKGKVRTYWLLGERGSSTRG
As to the kind of experiment: Natriuretic peptide fusion protein induced cGMP assay, human NPRA transfected HEK293 cells. The series is classed as cell-based. The source says:
Full-length human NPRA, human NPRB, and human […] (NPRC) sequence containing plasmids were purchased from OriGene Technologies, Inc. (Rockville, Md.) then sub-cloned into pcDNA3.1 directional mammalian expression vector (Invitrogen). Insert orientation and nucleotide sequence of each construct was verified by an outside vendor (SeqWright, Inc.). The pcDNA3.1 NPR clones were transfected using Lipofectamine (Invitrogen) into HEK293 cells where stable cell lines expressing human NPRA, human NPRB, or human NPRC are selected using G418. Clones were screened using the natriuretic peptide induced cGMP assay described below. (NPRA clones were treated with human ANP while NPRB clones were treated with human CNP (Sigma)). High cGMP producing clones were expanded. NPRC clones were screened using a ^125I ANP binding assay. ^125I ANP high binders were expanded. […]
Natriuretic peptides of >95% HPLC purity were obtained from Sigma. […] The cGMP concentration was measured using the HitHunter™ cGMP Assay Kit (DiscoveRx Corporation). cGMP production dose response curves were generated with a four parameter logistic equation fitted using the Levenburg Marquardt algorithm in XLfit4.2 data analysis software (ID Business Solutions, Ltd.).
Results 1 from both Labs 1 and 2 were generated by interpreting the raw Relative Luminescence Units (RLU). […]

The conditions of series [4]: humans; Potter et al.; cited from earlier work.

This is an account of results in US20100310561A1, “NATRIURETIC FUSION PROTEINS” (BOEHRINGER INGELHEIM INTERNATIONAL GMBH, priority 2007, published 2010).

Where two headings read alike, the source gives them in different places.

Broadly, the EC50 is the concentration that produces a half-maximal response.

On to `CC[C@H](C)[C@@H]1NC(=O)[C@H](CCCNC(=N)N)NC(=O)[C@H](CC(=O)O)NC(=O)[C@H](CCSC)NC(=O)[C@H](CCCNC(=N)N)NC(=O)CNC(=O)CNC(=O)[C@H](Cc2ccccc2)NC(=O)[C@@H](NC(=O)[C@H](CO)NC(=O)[C@H](CO)NC(=O)[C@H](CCCNC(=N)N)NC(=O)[C@H](CCCNC(=N)N)NC(=O)[C@H](CC(C)C)NC(=O)[C@@H](N)CO)CSSC[C@@H](C(=O)N[C@@H](CC(N)=O)C(=O)N[C@@H](CO)C(=O)N[C@@H](Cc2ccccc2)C(=O)N[C@@H](CCCNC(=N)N)C(=O)N[C@@H](Cc2ccc(O)cc2)C(=O)O)NC(=O)CNC(=O)[C@H](CC(C)C)NC(=O)CNC(=O)[C@H](CO)NC(=O)[C@H](CCC(N)=O)NC(=O)[C@H](C)NC(=O)CNC1=O` [Construct 1, ANPXY], for which the EC50 in series [1] (Table 4, read-out: cGMP EC50 (nM) Dog NPRA) amounted to 1.3 nM; in series [1] (caNPRA 293 cells, read-out: Mean EC50 nM, cGMP-caNPRA 293), 1.34 nM; in series [2] it was 0.5 nM.

As for “Wild-type rat ANP: rat atrial natriuretic peptide, differs from human ANP by one amino acid (SLRRSSCFGGRIDRIGAQSGLGCNSFRY) [reference compound]”, in series [3], the “EC50 compared with human ANP in the human NPRA cGMP assay” value is on record as “slightly higher”. Turning to BNP: B-type natriuretic peptide, in series [4], the plasma half life result was “approximately 20 minutes”.
